According to patent publication US20250114338A1, “TETRAHYDRO-PYRIDO[3,4-b]INDOLE ESTROGEN RECEPTOR MODULATORS AND USES THEREOF” (Genentech, Inc., priority 2014, published 2025):
pEC50: −log10 of the molar value.

Test system: ER-alpha MCF7
Assay: ER-alpha MCF7 HCS EC50; stated as measured by in vitro cell proliferation assays of Examples 902 and 903
Assay type: cell-based
Conditions: Table 2
Summary of the method: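 MCF7 cells seeded 1000-2000 cells/well for 16 h, then treated with nine-point 1:2 DMSO dilution series in quadruplicate at 37 °C, 5% CO2 for 4 days. Viable cells quantified by CellTiter-Glo ATP luminescence; EC50 calculated. Controls: fulvestrant at final 100 nM, DMSO 0.2% v/v.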

Row | Structure (SMILES) | pEC50 (Homo sapiens, MCF7, MCF7 cells) | pEC50 (MCF7 cells)
1 | C[C@@H]1Cc2c([nH]c3ccccc23)[C@@H](c2c(F)cc(OC3CN(CCCF)C3)cc2F)N1C[C@H](CO)C(F)(F)F [Example 375, (R)-2-(((1R,3R)-1-(2,6-difluoro-4-((1-(3-fluoropropyl)azetidin-3-yl)oxy)phenyl)-3-methyl-1,3,4,9-tetrahydro-2H-pyrido[3,4-b]indol-2-yl)methyl)-3,3,3-trifluoropropan-1-ol] | 9.12 | 
2 | C[C@@H]1Cc2c([nH]c3ccccc23)[C@@H](c2c(F)cc(OC3CN(CCCF)C3)cc2F)N1C[C@@H](CO)C(F)(F)F [Example 376, (S)-2-(((1R,3R)-1-(2,6-difluoro-4-((1-(3-fluoropropyl)azetidin-3-yl)oxy)phenyl)-3-methyl-1,3,4,9-tetrahydro-2H-pyrido[3,4-b]indol-2-yl)methyl)-3,3,3-trifluoropropan-1-ol] | 9.00 | 
3 | C[C@@H]1Cc2c([nH]c3ccccc23)[C@@H](c2cnc(OC3CN(CCCF)C3)nc2)N1CC(C)(C)F [Example 377, (1R,3R)-2-(2-fluoro-2-methylpropyl)-1-(2-((1-(3-fluoropropyl)azetidin-3-yl)oxy)pyrimidin-5-yl)-3-methyl-2,3,4,9-tetrahydro-1H-pyrido[3,4-b]indole] | 9.30 | 
4 | C[C@@H]1Cc2c([nH]c3ccccc23)[C@H](c2c(F)cc(OCCN3CC(CF)C3)cc2F)N1CC(C)(C)C(=O)O [Example 378, 3-[(1S,3R)-1-[2,6-difluoro-4-[2-[3-(fluoromethyl)azetidin-1-yl]ethoxy]phenyl]-3-methyl-1,3,4,9-tetrahydropyrido[3,4-b]indol-2-yl]-2,2-dimethyl-propanoic acid] | 7.55 | 
5 | C[C@@H]1Cc2c([nH]c3ccccc23)[C@@H](c2c(F)cc(OCCN3CC(CF)C3)cc2F)N1CC(C)(F)F [Example 379, (1R,3R)-1-(2,6-difluoro-4-(2-(3-(fluoromethyl)azetidin-1-yl)ethoxy)phenyl)-2-(2,2-difluoropropyl)-3-methyl-2,3,4,9-tetrahydro-1H-pyrido[3,4-b]indole] | 9.55 | 
6 | C[C@@H]1Cc2c([nH]c3ccccc23)[C@@H](c2ccc([C@@H](O)C3CN(CCCF)C3)cc2)N1CC(C)(C)F [Example 380, (S)-(4-((1R,3R)-2-(2-fluoro-2-methylpropyl)-3-methyl-2,3,4,9-tetrahydro-1H-pyrido[3,4-b]indol-1-yl)phenyl)(1-(3-fluoropropyl)azetidin-3-yl)methanol] | 9.73 | 
7 | C[C@@H]1Cc2c([nH]c3ccccc23)[C@@H](c2ccc([C@H](O)C3CN(CCCF)C3)cc2)N1CC(C)(C)F [Example 381, (R)-(4-((1R,3R)-2-(2-fluoro-2-methylpropyl)-3-methyl-2,3,4,9-tetrahydro-1H-pyrido [3,4-b]indol-1-yl)phenyl)(1-(3-fluoropropyl)azetidin-3-yl)methanol] | 9.22 | 
8 | C[C@@H]1Cc2c([nH]c3ccccc23)[C@@H](c2c(F)cc(NC3CN(CCCF)C3)cc2F)N1CC(C)(C)C(=O)O [Example 382, 3-((1R,3R)-1-(2,6-difluoro-4-((1-(3-fluoropropyl)azetidin-3-yl)amino)phenyl)-3-methyl-1,3,4,9-tetrahydro-2H-pyrido[3,4-b]indol-2-yl)-2,2-dimethylpropanoic acid] | 9.00 | 
9 | C[C@@H]1Cc2c([nH]c3ccc(F)cc23)[C@@H](c2c(F)cc(OCCN3CC(CF)C3)cc2F)N1CC(F)F [Example 383, (1R,3R)-1-(2,6-difluoro-4-(2-(3-(fluoromethyl)azetidin-1-yl)ethoxy)phenyl)-2-(2,2-difluoroethyl)-6-fluoro-3-methyl-2,3,4,9-tetrahydro-1H-pyrido[3,4-b]indole] | 9.55 | 
10 | C[C@H]1Cc2c([nH]c3ccc(F)cc23)[C@H](c2c(F)cc(OCCN3CC(CF)C3)cc2F)N1CC(F)F [Example 384, (1S,3S)-1-(2,6-difluoro-4-(2-(3-(fluoromethyl)azetidin-1-yl)ethoxy)phenyl)-2-(2,2-difluoroethyl)-6-fluoro-3-methyl-2,3,4,9-tetrahydro-1H-pyrido[3,4-b]indole] | 7.54 | 
11 | C[C@@H]1Cc2c([nH]c3ccc(F)cc23)[C@@H](c2c(F)cc(OC3CN(CCCF)C3)cc2F)N1CC(F)F [Example 385, (1R,3R)-1-(2,6-difluoro-4-((1-(3-fluoropropyl)azetidin-3-yl)oxy)phenyl)-2-(2,2-difluoroethyl)-6-fluoro-3-methyl-2,3,4,9-tetrahydro-1H-pyrido[3,4-b]indole] | 10.13 | 
12 | C[C@H]1Cc2c([nH]c3ccc(F)cc23)[C@H](c2c(F)cc(OC3CN(CCCF)C3)cc2F)N1CC(F)F [Example 386, (1S,3S)-1-(2,6-difluoro-4-((1-(3-fluoropropyl)azetidin-3-yl)oxy)phenyl)-2-(2,2-difluoroethyl)-6-fluoro-3-methyl-2,3,4,9-tetrahydro-1H-pyrido[3,4-b]indole] | 7.64 | 
13 | C[C@@H]1Cc2c([nH]c3ccc(F)cc23)[C@@H](c2c(F)cc(NC3CN(CCCF)C3)cc2F)N1S(C)(=O)=O [Example 387, N-(3,5-difluoro-4-((1R,3R)-6-fluoro-3-methyl-2-(methylsulfonyl)-2,3,4,9-tetrahydro-1H-pyrido[3,4-b]indol-1-yl)phenyl)-1-(3-fluoropropyl)azetidin-3-amine] | 9.83 | 
14 | C[C@H]1Cc2c([nH]c3ccc(F)cc23)[C@H](c2c(F)cc(NC3CN(CCCF)C3)cc2F)N1S(C)(=O)=O [Example 388, N-(3,5-difluoro-4-((1S,3S)-6-fluoro-3-methyl-2-(methylsulfonyl)-2,3,4,9-tetrahydro-1H-pyrido[3,4-b]indol-1-yl)phenyl)-1-(3-fluoropropyl)azetidin-3-amine] | 7.72 | 
15 | C[C@@H]1Cc2c([nH]c3ccc(F)cc23)[C@@H](c2c(F)cc(NC3CN(CCCF)C3)cc2F)N1CC(F)F [Example 389, N-(4-((1R,3R)-2-(2,2-difluoroethyl)-6-fluoro-3-methyl-2,3,4,9-tetrahydro-1H-pyrido[3,4-b]indol-1-yl)-3,5-difluorophenyl)-1-(3-fluoropropyl)azetidin-3-amine] | 10.25 | 
16 | C[C@H]1Cc2c([nH]c3ccc(F)cc23)[C@H](c2c(F)cc(NC3CN(CCCF)C3)cc2F)N1CC(F)F [Example 390, N-(4-((1S,3S)-2-(2,2-difluoroethyl)-6-fluoro-3-methyl-2,3,4,9-tetrahydro-1H-pyrido[3,4-b]indol-1-yl)-3,5-difluorophenyl)-1-(3-fluoropropyl)azetidin-3-amine] | 8.01 | 
17 | C[C@@H]1Cc2c([nH]c3ccccc23)[C@@H](c2c(F)cc(OC3CN(C4CC(CF)C4)C3)cc2F)N1CC(C)(C)F (stereo partly drawn) [Example 391, (1R,3R)-1-(2,6-difluoro-4-((1- cis-(3-(fluoromethyl)cyclobutyl)azetidin-3-yl)oxy)phenyl)-2-(2-fluoro-2-methylpropyl)-3-methyl-2,3,4,9-tetrahydro-1H-pyrido[3,4-b]indole] |  | 9.82
18 | C[C@@H]1Cc2c([nH]c3ccccc23)[C@@H](c2c(F)cc(OC3CN(C4CC(CF)C4)C3)cc2F)N1CC(C)(C)F (stereo partly drawn) [Example 392, (1R,3R)-1-(2,6-difluoro-4-((1- trans-(3-(fluoromethyl)cyclobutyl)azetidin-3-yl)oxy)phenyl)-2-(2-fluoro-2-methylpropyl)-3-methyl-2,3,4,9-tetrahydro-1H-pyrido[3,4-b]indole] |  | 9.36
19 | C[C@@H]1Cc2c([nH]c3ccccc23)[C@@H](c2c(F)cc(OC3CN(CCCF)C3)cc2F)N1CC1(F)CCC1 [Example 393, (1R,3R)-1-(2,6-difluoro-4-((1-(3-fluoropropyl)azetidin-3-yl)oxy)phenyl)-2-((1-fluorocyclobutyl)methyl)-3-methyl-2,3,4,9-tetrahydro-1H-pyrido[3,4-b]indole] | 9.85 | 
20 | C[C@@H]1Cc2c([nH]c3ccccc23)[C@@H](c2c(F)cc(OCCN3CC(CF)C3)cc2F)N1C[C@H](F)CO [Example 394, (S)-3-((1R,3R)-1-(2,6-difluoro-4-(2-(3-(fluoromethyl)azetidin-1-yl)ethoxy)phenyl)-3-methyl-3,4-dihydro-1H-pyrido[3,4-b]indol-2(9H)-yl)-2-fluoropropan-1-ol] | 9.64 | 
21 | C[C@@H]1Cc2c([nH]c3ccccc23)[C@@H](c2c(F)cc(OCCN3CC(CF)C3)cc2F)N1C[C@@H](F)CO [Example 395, (R)-3-((1R,3R)-1-(2,6-difluoro-4-(2-(3-(fluoromethyl)azetidin-1-yl)ethoxy)phenyl)-3-methyl-3,4-dihydro-1H-pyrido[3,4-b]indol-2(9H)-yl)-2-fluoropropan-1-ol] | 10.28 | 
22 | C[C@@H]1Cc2c([nH]c3cc(F)ccc23)[C@@H](c2c(F)cc(NC3CN(CCCF)C3)cc2F)N1CC(F)(F)F [Example 396, N-(3,5-difluoro-4-((1R,3R)-7-fluoro-3-methyl-2-(2,2,2-trifluoroethyl)-2,3,4,9-tetrahydro-1H-pyrido[3,4-b]indol-1-yl)phenyl)-1-(3-fluoropropyl)azetidin-3-amine] | 9.96 | 
23 | C[C@H]1Cc2c([nH]c3cc(F)ccc23)[C@H](c2c(F)cc(NC3CN(CCCF)C3)cc2F)N1CC(F)(F)F [Example 397, N-(3,5-difluoro-4-((1S,3S)-7-fluoro-3-methyl-2-(2,2,2-trifluoroethyl)-2,3,4,9-tetrahydro-1H-pyrido[3,4-b]indol-1-yl)phenyl)-1-(3-fluoropropyl)azetidin-3-amine] | 7.48 | 
24 | C[C@@H]1Cc2c([nH]c3cccc(F)c23)[C@@H](c2c(F)cc(NC3CN(CCCF)C3)cc2F)N1C[C@](C)(F)CO [Example 398, (S)-3-((1R,3R)-1-(2,6-difluoro-4-((1-(3-fluoropropyl)azetidin-3-yl)amino)phenyl)-5-fluoro-3-methyl-3,4-dihydro-1H-pyrido[3,4-b]indol-2(9H)-yl)-2-fluoro-2-methylpropan-1-ol] | 9.96 | 
25 | C[C@H]1Cc2c([nH]c3cccc(F)c23)[C@H](c2c(F)cc(NC3CN(CCCF)C3)cc2F)N1C[C@@](C)(F)CO [Example 399, (R)-3-((1S,3S)-1-(2,6-difluoro-4-((1-(3-fluoropropyl)azetidin-3-yl)amino)phenyl)-5-fluoro-3-methyl-3,4-dihydro-1H-pyrido[3,4-b]indol-2(9H)-yl)-2-fluoro-2-methylpropan-1-ol] | 8.96 | 
